# Structures can show the parent of a compound that is named as a salt.
# Molecular target: AMPA receptor
# Assay: Binding experiment against AMPA receptor ([3H]-AMPA binding, crude synaptic membranes from cerebral cortex)
# Settings: rat cerebral cortex crude synaptic membranes; [3H]-AMPA 5 nmol/L, potassium thiocyanate 100 mmol/L, 30 minutes at 0° C.; IC50 converted to Ki
# Description: Binding Experiment Against AMPA Receptor
# To a crude synaptic membranes preparation prepared from cerebral cortex in rat were added [^3H]-AMPA (final concentration: 5 nmol/L) that binds selectively to AMPA receptors, potassium thiocyanate (final concentration: 100 mmol/L) and testing compound, and the mixture was incubated for 30 minutes at 0° C. After the reaction was stopped by suction filtration, the radioactivity on filter was measured with liquid scintillation counter. The specific binding level of [^3H]-AMPA was determined by subtracting the non-specific binding level in the presence of glutamic acid (0.1 mmol/L) from total binding level. The [^3H]-AMPA binding in the absence of testing compound was put on 100, and the concentration of compound to decrease by 50% (IC50 value) was determined, which was converted to Ki value to calculate the binding capacity of each compound to AMPA receptor (Eur. J. Pharmacol., 1993, 246, 195-204).
row,Ki [nM],Structure (SMILES)
1,22.4,"O=C(Nc1ccccc1)OCc1cn(-c2cc3cc(C(=O)O)c(=O)[nH]c3cc2[N+](=O)[O-])cn1 [Example 2, 1,2-Dihydro-7-nitro-2-oxo-6-(4-((phenylcarbamoyloxy)methyl)imidazole-1-yl)quinoline-3-carboxylic acid]"
2,8.22,O=C(Nc1ccccc1F)OCc1cn(-c2cc3cc(C(=O)O)c(=O)[nH]c3cc2[N+](=O)[O-])cn1 [Example 6]
3,17.8,"O=C(Nc1cccc(C(=O)O)c1)OCc1cn(-c2cc3cc(C(=O)O)c(=O)[nH]c3cc2[N+](=O)[O-])cn1 [Example 15, 6-(4-(((3-Carboxyphenyl)carbamoyloxy)methyl)imidazole-1-yl)-1,2-dihydro-7-nitro-2-oxoquinoline-3-carboxylic acid]"
4,16.5,"O=C(Nc1ccc(C(=O)O)cc1)OCc1cn(-c2cc3cc(C(=O)O)c(=O)[nH]c3cc2[N+](=O)[O-])cn1 [Example 16, 6-(4-(((4-Carboxyphenyl)carbamoyloxy)methyl)imidazole-1-yl)-1,2-dihydro-7-nitro-2-oxoquinoline-3-carboxylic acid]"
5,18.4,"CCOC(=O)c1ccc(NC(=O)OCc2cn(-c3cc4cc(C(=O)OCC)c(=O)[nH]c4cc3C(F)(F)F)cn2)cc1 [Example 18, Ethyl 1,2-dihydro-6-(4-(((4-ethoxycarbonylphenyl)carbamoyloxy)methyl)imidazole-1-yl)-2-oxo-7-trifluoromethylquinoline-3-carboxylate]"

# Test system: not given
# Assay: not given
# Settings: not given
row,melting point,Structure (SMILES)
1,226 to 228 °C,O=C(Nc1ccccc1F)OCc1cn(-c2cc3cc(C(=O)O)c(=O)[nH]c3cc2[N+](=O)[O-])cn1 (as salt: HCl) [Example 6]
2,218 to 220 °C,"O=C(Nc1ccc(C(=O)O)cc1)OCc1cn(-c2cc3cc(C(=O)O)c(=O)[nH]c3cc2C(F)(F)F)cn1 [Example 19, 6-(4-(((4-Carboxyphenyl)carbamoyloxy)methyl)imidazole-1-yl)-1,2-dihydro-2-oxo-7-trifluoromethylquinoline-3-carboxylic acid]"
3,145 to 147 °C,"O=C(Nc1ccccc1Br)OCc1cn(-c2cc3cc(C(=O)O)c(=O)[nH]c3cc2C(F)(F)F)cn1 [Example 25, 6-(4-(((2-Bromophenyl)carbamoyloxy)methyl)imidazole-1-yl)-1,2-dihydro-2-oxo-7-trifluoromethylquinoline-3-carboxylic acid]"
4,169 to 171 °C,O=C(NCc1ccccc1)OCc1cn(-c2cc3cc(C(=O)O)c(=O)[nH]c3cc2C(F)(F)F)cn1 [Example 32]
5,180 to 182 °C,"O=C(Nc1ccccc1)OCc1cn(-c2cc3cc(C(=O)O)c(=O)[nH]c3cc2Cl)cn1 [Example 41, 7-Chloro-1,2-dihydro-2-oxo-6-(4-((phenylcarbamoyloxy)methyl)imidazole-1-yl)quinoline-3-carboxylic acid]"
6,263 to 265 °C (dec.),"O=C(Nc1cccc(C(=O)O)c1)OCc1cn(-c2cc3cc(C(=O)O)c(=O)[nH]c3cc2Cl)cn1 [Example 43, 6-((((3-Carboxyphenyl)carbamoyloxy)methyl)imidazole-1-yl)-7-chloro-1,2-dihydro-2-oxoquinoline-3-carboxylic acid]"
7,249 to 251 °C,"O=C(Nc1ccc(C(=O)O)cc1)OCc1cn(-c2cc3cc(C(=O)O)c(=O)[nH]c3cc2Cl)cn1 [Example 44, 6-((((4-Carboxyphenyl)carbamoyloxy)methyl)imidazole-1-yl)-7-chloro-1,2-dihydro-2-oxoquinoline-3-carboxylic acid]"

# — patent publication US6562839B1, “6-substituted heteroquinolinecarboxylic acid derivatives and addition salts thereof and processes for the preparation of both” (Kyorin Pharmaceutical Co., Ltd., priority 1999, dated 2003)
